Test results: ChEMBL document CHEMBL1201862, “PubChem BioAssay data set” (2004)
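Test compounds were applied to cells in 96-well plates for 48 hours at 5 doses. At the GI50, growth is halved.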 The source made the active and inactive calls. Cut-off read from the data, not from the text of the source: active = GI50 up to about 1.1 µM and inactive = higher.

Assays:
Test in all cases: NCI anticancer screen, dose series, 48 h
MDA-MB-435 = tested on: MDA-MB-435
BT-549 = tested on: BT-549
T47D = tested on: T47D
U-251 = tested on: U-251
UO-31 = tested on: UO-31
MOLT-4 = tested on: MOLT-4
NCI-H226 = tested on: NCI-H226
Hs-578T = tested on: Hs-578T
SNB-19 = tested on: SNB-19
SF-295 = tested on: SF-295
SK-MEL-28 = tested on: SK-MEL-28
NCI-H23 = tested on: NCI-H23
SW-620 = tested on: SW-620
RXF 393 = tested on: RXF 393
HCT-116 = tested on: HCT-116
M14 = tested on: M14
MCF7 = tested on: MCF7
SNB-75 = tested on: SNB-75
OVCAR-5 = tested on: OVCAR-5

Row | Compound | GI50 (MDA-MB-435) | GI50 (BT-549) | GI50 (T47D) | GI50 (U-251) | GI50 (UO-31) | GI50 (MOLT-4) | GI50 (NCI-H226) | GI50 (Hs-578T) | GI50 (SNB-19) | GI50 (SF-295) | GI50 (SK-MEL-28) | GI50 (NCI-H23) | GI50 (SW-620) | GI50 (RXF 393) | GI50 (HCT-116) | GI50 (M14) | GI50 (MCF7) | GI50 (SNB-75) | GI50 (OVCAR-5)
1 | COc1ccc(/C=N/n2c(-c3ccccc3)n[nH]c2=O)c(OC)c1 | > 100 µM (inactive) | 4.41 µM (inactive) | 50 µM (inactive) | 40.6 µM (inactive) | 24.4 µM (inactive) | > 100 µM (inactive) | 51.1 µM (inactive) | 37.2 µM (inactive) | 1.13 µM (inactive) | 32.7 µM (inactive) | > 100 µM (inactive) | 39.4 µM (inactive) | > 100 µM (inactive) | 29.3 µM (inactive) | 54.5 µM (inactive) | 98.2 µM (inactive) | 49.4 µM (inactive) | 27 µM (inactive) | > 92.9 µM (inactive)
2 | COc1cccc2c1C(=O)c1c(O)c3c(c(O)c1C2=O)C[C@@](O)(C(=O)CO)C[C@@H]3OC1CC2C(OCN3CN2COC2C(C)OC(O[C@H]4C[C@](O)(C(=O)CO)Cc5c(O)c6c(c(O)c54)C(=O)c4c(OC)cccc4C6=O)CC23)C(C)O1 (stereo partly specified) | 0.0891 µM (active) | 0.157 µM (active) | 0.0167 µM (active) | 0.0186 µM (active) | 0.139 µM (active) | 0.00269 µM (active) | 0.0665 µM (active) | 0.0559 µM (active) | 0.0272 µM (active) | 0.0498 µM (active) | 0.157 µM (active) | 0.027 µM (active) | 0.0187 µM (active) | 0.0106 µM (active) | 0.0289 µM (active) | 0.0861 µM (active) | 0.0179 µM (active) | 0.0151 µM (active) | 0.131 µM (active)
3 | Cc1nc2ccccc2c(=O)n1NC(=O)c1ccccc1[N+](=O)[O-] | > 100 µM (inactive) | > 100 µM (inactive) | > 100 µM (inactive) | > 100 µM (inactive) | > 100 µM (inactive) | > 100 µM (inactive) | > 100 µM (inactive) | 33.9 µM (inactive) | > 100 µM (inactive) | > 100 µM (inactive) | > 100 µM (inactive) | > 100 µM (inactive) | > 100 µM (inactive) | > 10 µM (inactive) | > 100 µM (inactive) | > 100 µM (inactive) | > 100 µM (inactive) | 81.5 µM (inactive) | > 100 µM (inactive)
4 | O=C1Cc2c(-c3cccs3)cc(-c3ccccc3)nc2-c2ccccc2N1 | 78 µM (inactive) | > 100 µM (inactive) | 26.4 µM (inactive) | > 10 µM (inactive) | > 100 µM (inactive) | > 100 µM (inactive) | 81.8 µM (inactive) | 2.14 µM (inactive) | 47.9 µM (inactive) | 47.4 µM (inactive) | > 100 µM (inactive) | > 100 µM (inactive) | > 100 µM (inactive) | 32.8 µM (inactive) | 32.9 µM (inactive) | 28.2 µM (inactive) | 96.8 µM (inactive) | 0.0441 µM (active) | > 100 µM (inactive)
5 | [N-]=[N+]=Nc1ccc(NCCCCCC(=O)ON2C(=O)CCC2=O)c([N+](=O)[O-])c1 | 48.1 µM (inactive) | > 100 µM (inactive) | 62.1 µM (inactive) | > 100 µM (inactive) | 46.3 µM (inactive) | 15.4 µM (inactive) | > 100 µM (inactive) | < 0.01 µM (active) | > 100 µM (inactive) | > 100 µM (inactive) | 74.1 µM (inactive) | 66.7 µM (inactive) | 60.1 µM (inactive) | 40.8 µM (inactive) | 39.6 µM (inactive) | 58.3 µM (inactive) | > 100 µM (inactive) | 72.9 µM (inactive) | 44.2 µM (inactive)
6 | C[C@]12CC[C@@H]3c4ccc(OC(=O)c5ccccc5)cc4CC[C@H]3[C@@H]1CCC2OC(=O)c1cccc2c(=O)c3ccccc3[nH]c12 (stereo partly specified) | 3.77 µM (inactive) | 18.2 µM (inactive) | 26.4 µM (inactive) | 15.7 µM (inactive) | 27.6 µM (inactive) | 63 µM (inactive) | 17.9 µM (inactive) | 18.1 µM (inactive) | 27.4 µM (inactive) | 18.2 µM (inactive) | 15.8 µM (inactive) | 20.8 µM (inactive) | 12.1 µM (inactive) | 14.4 µM (inactive) | 16.4 µM (inactive) | 17.1 µM (inactive) | 12.2 µM (inactive) | 23 µM (inactive) | 18.2 µM (inactive)
7 | CN(C)CCCOc1nc2c(c(=O)n(C)c(=O)n2C)n1C.SC1=NC=NC2=NC=NC12 | 1.7 µM (inactive) | 11.3 µM (inactive) | 68.9 µM (inactive) | 18.1 µM (inactive) | 3.73 µM (inactive) | 0.43 µM (active) | 2.15 µM (inactive) | 16 µM (inactive) | 88.5 µM (inactive) | 2.22 µM (inactive) | 55.5 µM (inactive) | 6.71 µM (inactive) | 4.45 µM (inactive) | > 100 µM (inactive) | 5.62 µM (inactive) | 8.38 µM (inactive) | 2.09 µM (inactive) | 6.12 µM (inactive) | 23.4 µM (inactive)
8 | C/C(=N\Nc1nc2ccccc2s1)c1ccncn1 | 2.69 µM (inactive) | 4.15 µM (inactive) | 0.612 µM (active) | 1.3 µM (inactive) | 0.387 µM (active) | 0.145 µM (active) | 0.14 µM (active) | 6.03 µM (inactive) | 3.02 µM (inactive) | 3.31 µM (inactive) | 2 µM (inactive) | 0.56 µM (active) | 0.229 µM (active) | 7.74 µM (inactive) | 0.532 µM (active) | 0.51 µM (active) | 0.348 µM (active) | 4.1 µM (inactive) | 3.13 µM (inactive)
9 | CCn1c(SCC(=O)NNC(=S)Nc2ccc(F)cc2)nc2ccccc2c1=O | > 100 µM (inactive) | > 100 µM (inactive) | 57.7 µM (inactive) | > 100 µM (inactive) | 17.9 µM (inactive) | 44.4 µM (inactive) | > 100 µM (inactive) | > 100 µM (inactive) | > 100 µM (inactive) | > 100 µM (inactive) | > 100 µM (inactive) | > 100 µM (inactive) | > 100 µM (inactive) | > 100 µM (inactive) | > 100 µM (inactive) | > 100 µM (inactive) | > 100 µM (inactive) | > 100 µM (inactive) | > 100 µM (inactive)
10 | COC(=O)[C@@H]1C[C@@]2(C3C=CN(C(=O)C(F)(F)F)C=C3)c3ccccc3N(C(=O)C(F)(F)F)[C@H]2N1C(=O)OC | 44.8 µM (inactive) | 33.3 µM (inactive) | 46.7 µM (inactive) | 43 µM (inactive) | > 100 µM (inactive) | 61.5 µM (inactive) | > 100 µM (inactive) | 49.7 µM (inactive) | 71.6 µM (inactive) | > 100 µM (inactive) | 39.1 µM (inactive) | > 100 µM (inactive) | 47.3 µM (inactive) | 24.5 µM (inactive) | > 100 µM (inactive) | > 100 µM (inactive) | 51.8 µM (inactive) | 20.1 µM (inactive) | > 100 µM (inactive)
11 | O=C(c1cc(Br)ccc1O)c1cc(Br)ccc1O | 15.8 µM (inactive) | 17.8 µM (inactive) | 14.2 µM (inactive) | 15.5 µM (inactive) | 14.3 µM (inactive) | 18.4 µM (inactive) | 20 µM (inactive) | 29.8 µM (inactive) | 17.2 µM (inactive) | 17.7 µM (inactive) | 16.8 µM (inactive) | 17.1 µM (inactive) | 16.4 µM (inactive) | 14.7 µM (inactive) | 15.9 µM (inactive) | 15.7 µM (inactive) | 16.8 µM (inactive) | 16.4 µM (inactive) | 17.4 µM (inactive)
12 | N[C@H](C(=O)O)[C@@H]1CC(Br)=NO1 | 19.7 µM (inactive) | > 27 µM (inactive) | > 34.1 µM (inactive) | 10.4 µM (inactive) | 6.46 µM (inactive) | 22.6 µM (inactive) | > 96.6 µM (inactive) | 8.95 µM (inactive) | 36.4 µM (inactive) | 6.28 µM (inactive) | 32.7 µM (inactive) | > 35.7 µM (inactive) | 5.87 µM (inactive) | 11.9 µM (inactive) | 5.6 µM (inactive) | 11.5 µM (inactive) | 3.42 µM (inactive) | 16.8 µM (inactive) | 16.8 µM (inactive)
13 | CC(C)(C)OC(=O)N1C(OP(=O)(Oc2ccccc2)Oc2ccccc2)=CSc2ccccc21 | 31.3 µM (inactive) | 48.4 µM (inactive) | 27.4 µM (inactive) | 32.9 µM (inactive) | 27.4 µM (inactive) | 20.1 µM (inactive) | 80.2 µM (inactive) | 45.8 µM (inactive) | 43.2 µM (inactive) | 29.3 µM (inactive) | 26.5 µM (inactive) | 37.4 µM (inactive) | 41.2 µM (inactive) | 41.8 µM (inactive) | 30.2 µM (inactive) | 25.8 µM (inactive) | 28.5 µM (inactive) | 31 µM (inactive) | 68.9 µM (inactive)
14 | COc1nc2c(c(=O)n1C)NC(C(O)C(O)CO)C=N2 (stereo unspecified) | > 10 µM (inactive) | > 10 µM (inactive) | > 10 µM (inactive) | > 10 µM (inactive) | > 10 µM (inactive) | > 10 µM (inactive) | > 10 µM (inactive) | > 10 µM (inactive) | > 10 µM (inactive) | > 10 µM (inactive) | > 10 µM (inactive) | > 10 µM (inactive) | > 10 µM (inactive) | > 10 µM (inactive) | > 10 µM (inactive) | > 10 µM (inactive) | > 10 µM (inactive) | > 10 µM (inactive) | > 10 µM (inactive)
